In assay [1] the target is T1, Inhibitor of nuclear factor kappa-B kinase subunit beta (Homo sapiens, UniProt O14920).
T1 sequence (O14920 whole entry): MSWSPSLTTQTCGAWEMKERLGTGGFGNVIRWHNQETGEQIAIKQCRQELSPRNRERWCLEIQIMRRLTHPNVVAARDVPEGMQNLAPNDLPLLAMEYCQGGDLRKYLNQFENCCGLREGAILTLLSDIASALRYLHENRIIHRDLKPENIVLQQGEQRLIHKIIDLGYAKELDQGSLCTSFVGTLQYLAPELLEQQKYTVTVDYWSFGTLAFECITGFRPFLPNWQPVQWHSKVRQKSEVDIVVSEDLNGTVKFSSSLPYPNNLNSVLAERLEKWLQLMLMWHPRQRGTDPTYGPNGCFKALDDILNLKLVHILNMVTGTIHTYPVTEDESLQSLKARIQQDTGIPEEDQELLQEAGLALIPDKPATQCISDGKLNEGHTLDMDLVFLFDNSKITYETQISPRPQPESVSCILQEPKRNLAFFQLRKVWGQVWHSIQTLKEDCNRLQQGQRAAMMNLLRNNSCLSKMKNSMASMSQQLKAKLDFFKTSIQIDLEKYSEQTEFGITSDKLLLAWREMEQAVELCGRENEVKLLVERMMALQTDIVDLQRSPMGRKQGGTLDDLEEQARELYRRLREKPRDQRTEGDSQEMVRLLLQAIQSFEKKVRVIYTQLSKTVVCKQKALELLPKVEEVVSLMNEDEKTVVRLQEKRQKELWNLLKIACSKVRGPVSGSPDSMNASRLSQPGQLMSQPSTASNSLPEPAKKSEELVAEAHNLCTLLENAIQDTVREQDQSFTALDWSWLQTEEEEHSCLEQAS
Kind of assay: Inhibition of IKK2.

Assay [2] can be described thus: Selectivity ratio of IC50 for IKK1 to IC50 for IKK2.
Assay [3] concerns the target T2, Inhibitor of nuclear factor kappa-B kinase subunit alpha (Homo sapiens) (UniProt O15111).
T2 sequence (whole entry): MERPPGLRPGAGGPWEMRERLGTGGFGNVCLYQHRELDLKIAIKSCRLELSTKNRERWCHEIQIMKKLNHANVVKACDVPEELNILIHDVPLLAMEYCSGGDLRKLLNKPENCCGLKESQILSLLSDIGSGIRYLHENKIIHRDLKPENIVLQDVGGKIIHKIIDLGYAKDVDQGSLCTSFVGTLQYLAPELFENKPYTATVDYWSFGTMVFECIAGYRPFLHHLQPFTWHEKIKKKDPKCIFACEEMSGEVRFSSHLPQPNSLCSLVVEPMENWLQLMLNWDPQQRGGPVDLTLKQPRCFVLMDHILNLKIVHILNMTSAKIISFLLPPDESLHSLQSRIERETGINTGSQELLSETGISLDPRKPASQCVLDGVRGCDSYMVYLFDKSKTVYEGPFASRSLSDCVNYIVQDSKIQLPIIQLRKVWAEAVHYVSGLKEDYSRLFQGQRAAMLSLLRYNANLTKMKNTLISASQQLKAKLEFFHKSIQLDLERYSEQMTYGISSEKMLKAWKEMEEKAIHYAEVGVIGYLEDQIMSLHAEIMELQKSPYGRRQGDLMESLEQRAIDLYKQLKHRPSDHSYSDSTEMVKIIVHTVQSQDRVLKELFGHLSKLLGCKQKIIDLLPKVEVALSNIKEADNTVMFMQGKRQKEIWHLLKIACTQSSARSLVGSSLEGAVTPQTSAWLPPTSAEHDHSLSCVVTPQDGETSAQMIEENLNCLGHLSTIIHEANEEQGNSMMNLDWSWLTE
The assay is described as follows: Inhibition of IKK1 at 10 uM.

Assay [4] is described as follows: Selectivity ratio of IC50 for E-selectin promoter transfected in human A549 cells to IC50 for IKK2. It counts as functional.
Assay [5] relates to A549. The assay is described as follows: Inhibition of TNF-alpha-stimulated E-selectin promoter transfected human A549 cells after 6 hrs. It counts as functional, cell-based. The settings on record: A549, 6 h.
The target in assay [6] is T3, Inhibitor of nuclear factor kappa-B kinase subunit alpha (Homo sapiens, UniProt O15111).
T3 sequence (O15111 whole entry): T2 sequence (whole entry)
Kind of assay: Inhibition of IKK1.

The structures appear in SMILES notation. Where only a bound is given, the exact number is not on record here.

As to `O=S(=O)(c1ccccc1)c1ccc(-c2ccnc(Nc3ccc4ncsc4c3)n2)cc1`, the IC50 in assay [1] came to 440 nM. Besides, in assay [2], the Ratio IC50 was > 22. In addition, the inhibition in assay [3] was found to be 24%.
`CN(C)S(=O)(=O)c1ccc(-c2ccnc(Nc3ccc4ncsc4c3)n2)cc1`: the half-inhibitory concentration (IC50) in assay [1] came out at 410 nM; in assay [5], 1920 nM. The “Ratio IC50” value is 4.7 in assay [4] and > 24 in assay [2]. Moreover, in assay [3], the inhibition stood at 28%.
For the compound `O=S(=O)(c1ccc(-c2ccnc(Nc3ccc4ncsc4c3)n2)cc1)N1CCNCC1`, the results for the IC50 in assay [1], in assay [6] and in assay [5] were 64 nM, 850 nM and 5700 nM, respectively. The entries for the “Ratio IC50” value in assay [4] and in assay [2] were 89 and 13, respectively.
`c1cn(-c2ccc(-c3ccnc(Nc4ccc5ncsc5c4)n3)cc2)cn1` had an IC50 in assay [1] of 700 nM. Besides, the Ratio IC50 in assay [2] is > 14. Besides, the inhibition in assay [3] is 34%.
For `O=S(=O)(Nc1ccc(-c2ccnc(Nc3ccc4ncsc4c3)n2)cc1)c1ccc2nonc2c1`, the half-maximal inhibitory concentration (IC50) amounted to 230 nM in assay [1], 4840 nM in assay [6] and 17800 nM in assay [5]. Further, the “Ratio IC50” value in assay [4] was found to be 77; in assay [2], 21.
In assay [1], `c1cnc(Oc2ccc(-c3ccnc(Nc4ccc5ncsc5c4)n3)cc2)nc1` displayed an IC50 of 3600 nM.
In assay [1], `O=c1ccn(-c2ccc(-c3ccnc(Nc4ccc5ncsc5c4)n3)cc2)cc1` came in with an IC50 of 2500 nM. In addition, the Ratio IC50 in assay [2] is > 4. The inhibition in assay [3] came out at 14%.
In turn, `Cc1ccc(S(=O)(=O)Nc2ccc(-c3ccnc(Nc4ccc5ncsc5c4)n3)cc2)cc1` came in with an IC50 in assay [1] of 1500 nM.
For `CN(CCOc1ccc(-c2ccnc(Nc3ccc4ncsc4c3)n2)cc1)c1ccccn1`, half-maximal inhibition in assay [1] (IC50) required 4000 nM.
With `O=S(=O)(c1ccc(-c2ccnc(Nc3ccc4ncsc4c3)n2)cc1)N1CCCC1`, the IC50 in assay [1] stood at 540 nM; in assay [5] it was 1500 nM. In addition, in assay [4], the “Ratio IC50” value was 2.8. The inhibition in assay [3] was found to be 48%.
Turning to `CN1CCN(c2ccc(-c3ccnc(Nc4ccc5ncsc5c4)n3)cc2)CC1`, the IC50 in assay [1] is 410 nM; in assay [6], 2630 nM; in assay [5], 1270 nM. Moreover, the “Ratio IC50” value in assay [4] is 3.1; in assay [2], 6.
In turn, `O=S(=O)(Nc1ccc(-c2ccnc(Nc3ccc4ncsc4c3)n2)cc1)c1cc(Cl)c(Cl)s1` came in with an IC50 in assay [1] of 8900 nM.
With `O=S(=O)(c1ccc(-c2ccnc(Nc3ccc4ncsc4c3)n2)cc1)N1CCCCC1`, the values for the IC50 in assay [1] and in assay [5] were 600 nM and 2080 nM, respectively. The “Ratio IC50” value in assay [4] is 3.5; in assay [2], > 17. Also, the inhibition in assay [3] is 30%.
In assay [1], `COc1ccc(S(=O)(=O)Nc2ccc(-c3ccnc(Nc4ccc5ncsc5c4)n3)cc2)cc1` came in with an IC50 of 8900 nM.
For the compound `O=S(=O)(Nc1ccc(-c2ccnc(Nc3ccc4ncsc4c3)n2)cc1)c1ccc(Cl)cc1`, the IC50 was determined as 990 nM in assay [1] and 2990 nM in assay [6]. Further, the Ratio IC50 in assay [2] amounted to 3.
In the case of `O=C(Nc1ccc(-c2ccnc(Nc3ccc4ncsc4c3)n2)cc1)C1CCNCC1`, the IC50 in assay [1] was 400 nM; in assay [6], 1910 nM; in assay [5], 3820 nM. Also, the “Ratio IC50” value in assay [4] came out at 9.5.
As to `O=S(=O)(c1ccc(-c2ccnc(Nc3ccc4ncsc4c3)n2)cc1)N1CCSCC1`, the IC50 stood at 250 nM in assay [1], 5000 nM in assay [6] and 289 nM in assay [5]. Moreover, in assay [4], the “Ratio IC50” value was 1.2.
Regarding `c1ccc(Oc2ccc(-c3ccnc(Nc4ccc5ncsc5c4)n3)cc2)cc1`, in assay [1], half-maximal inhibition (IC50) was put at 6600 nM.
Consider `O=S(=O)(c1ccc(-c2ccnc(Nc3ccc4ncsc4c3)n2)cc1)N1CCOCC1`, for which the values for the concentration for half-maximal inhibition (IC50) in assay [1], in assay [6] and in assay [5] were 380 nM, 6700 nM and 1810 nM, respectively. Also, the “Ratio IC50” value in assay [4] turned out to be 4.8.
For `O=C(Nc1ccc(-c2ccnc(Nc3ccc4ncsc4c3)n2)cc1)C1CCCN1` (stereo unspecified), the IC50 worked out at 130 nM in assay [1] and 146 nM in assay [6]. Besides, in assay [2], the Ratio IC50 was 1.
The compound `COc1cccc2nc(-c3cccs3)nc(NN3C(=O)C=C(C)C3=O)c12` [AS-602868] showed an IC50 in assay [6] of 13000 nM.
Consider `NCCC(=O)Nc1ccc(-c2ccnc(Nc3ccc4ncsc4c3)n2)cc1`, for which the IC50 was 270 nM in assay [1] and 731 nM in assay [6]. Also, the Ratio IC50 in assay [2] came to 3.

Source of the values: ChEMBL document CHEMBL1145576, “Synthesis and structure-activity relationship of aminopyrimidine IKK2 inhibitors” (Bioorg Med Chem Lett, 2008).
